Reference: patent US9586961B2, “Homopiperazine derivatives as protein tyrosine kinase inhibitors and pharmaceutical use thereof” (LEO PHARMA A/S, priority 2010, dated 2017)

How the values were obtained:
Type in all cases: biochemical
[1] = target: T1, JAK1 (Homo sapiens, UniProt P23458); experiment: JAK1 kinase assay (HTRF, inhibition of phosphorylation of a synthetic peptide); conditions: catalytic domain aa 850-1154, GST-tag; 7 μM ATP (Km); read-out: JAK1 kinase inhibitory activity (EC50)
T1 construct: JAK1 (aa 850-1154) and TYK2 (aa 871-1187) are expressed with an N-terminally fused GST-tag; GST (N); purchased Carna Biosciences, Inc; host or cells: baculovirus expression system
In short: (§1)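 HTRF detection (streptavidin-XL665, cryptate anti-phospho antibody, overnight in the dark) after EDTA stop of a 20-30 min RT reaction on 1 μM TK substrate-biotin. Km-level ATP per kinase: 7 μM for JAK1 and 13 μM for TYK2, both N-terminal GST, with 50 nM SEB; 4 μM for JAK2 and 2 μM for JAK3, both His-tagged. Catalytic domains only; DMSO 0.75%.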

[2] = target: T2, JAK2 (Homo sapiens, UniProt O60674); experiment: JAK2 kinase assay (HTRF, inhibition of phosphorylation of a synthetic peptide); conditions: catalytic domain, His-tag; 4 μM ATP (Km); read-out: JAK2 kinase inhibitory activity (EC50)
T2 construct: All four purified enzymes contain only the catalytic domain; His (N); purchased Carna Biosciences, Inc; host or cells: baculovirus expression system
In short: as §1

[3] = target: T3, JAK3 (Homo sapiens, UniProt P52333); experiment: JAK3 kinase assay (HTRF, inhibition of phosphorylation of a synthetic peptide); conditions: catalytic domain, His-tag; 2 μM ATP (Km); read-out: JAK3 kinase inhibitory activity (EC50)
T3 construct: All four purified enzymes contain only the catalytic domain; His (N); purchased Carna Biosciences, Inc; host or cells: baculovirus expression system
In short: as §1

[4] = target: T4, TYK2 (Homo sapiens, UniProt P29597); experiment: TYK2 kinase assay (HTRF, inhibition of phosphorylation of a synthetic peptide); conditions: catalytic domain aa 871-1187, GST-tag; 13 μM ATP (Km); read-out: TYK2 kinase inhibitory activity (EC50)
T4 construct: JAK1 (aa 850-1154) and TYK2 (aa 871-1187) are expressed with an N-terminally fused GST-tag; GST (N); purchased Carna Biosciences, Inc; host or cells: baculovirus expression system
T4 sequence (P29597 871-1187): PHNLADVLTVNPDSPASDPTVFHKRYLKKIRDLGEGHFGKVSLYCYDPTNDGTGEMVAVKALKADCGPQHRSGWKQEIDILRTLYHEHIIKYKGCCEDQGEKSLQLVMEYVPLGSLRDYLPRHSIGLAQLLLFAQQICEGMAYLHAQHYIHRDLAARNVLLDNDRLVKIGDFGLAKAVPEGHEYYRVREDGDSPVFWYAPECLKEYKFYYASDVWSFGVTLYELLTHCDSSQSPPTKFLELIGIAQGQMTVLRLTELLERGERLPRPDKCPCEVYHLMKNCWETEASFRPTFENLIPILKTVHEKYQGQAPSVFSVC
In short: as §1

T2 sequence (O60674 849-1124 limits assumed): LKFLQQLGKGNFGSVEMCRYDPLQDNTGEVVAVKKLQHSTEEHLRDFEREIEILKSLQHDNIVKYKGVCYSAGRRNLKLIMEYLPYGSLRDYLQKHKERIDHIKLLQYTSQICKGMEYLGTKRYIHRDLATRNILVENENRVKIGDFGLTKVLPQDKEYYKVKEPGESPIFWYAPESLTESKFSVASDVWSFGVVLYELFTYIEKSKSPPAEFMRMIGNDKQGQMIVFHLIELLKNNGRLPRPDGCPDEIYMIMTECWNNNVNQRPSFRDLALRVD
T1 sequence (P23458 850-1154): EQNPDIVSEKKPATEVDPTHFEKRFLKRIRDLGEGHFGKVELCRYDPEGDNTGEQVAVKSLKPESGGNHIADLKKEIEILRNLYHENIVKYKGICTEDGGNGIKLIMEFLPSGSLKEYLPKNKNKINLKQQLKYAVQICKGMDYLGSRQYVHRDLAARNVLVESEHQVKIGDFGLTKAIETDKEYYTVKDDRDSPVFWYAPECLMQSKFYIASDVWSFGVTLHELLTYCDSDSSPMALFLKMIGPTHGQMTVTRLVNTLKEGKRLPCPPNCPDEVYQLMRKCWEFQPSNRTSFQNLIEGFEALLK
T3 sequence (P52333 822-1111 limits assumed): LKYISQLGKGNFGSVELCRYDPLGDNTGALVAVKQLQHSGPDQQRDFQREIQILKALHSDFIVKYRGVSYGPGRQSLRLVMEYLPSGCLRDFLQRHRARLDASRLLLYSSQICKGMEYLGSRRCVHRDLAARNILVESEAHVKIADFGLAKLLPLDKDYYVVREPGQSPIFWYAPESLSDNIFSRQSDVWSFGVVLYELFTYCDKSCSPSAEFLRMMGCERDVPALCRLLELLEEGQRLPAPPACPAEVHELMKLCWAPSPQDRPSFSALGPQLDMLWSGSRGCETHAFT

SMILES | EC50 [1] | EC50 [2] | EC50 [3] | EC50 [4]
N#CC1(C(=O)N2CCN(c3ncnc4[nH]ccc34)CC3(CC3)C2)CCCC1 [Example 40, 1-[5-(7H-pyrrolo[2,3-d]pyrimidin-4-yl)-5,8-diazaspiro[2.6]nonane-8-carbonyl]cyclopentanecarbonitrile] | > 1000 nM | 100 to 1000 nM | 100 to 1000 nM | > 1000 nM
O=C(c1ccc(S(=O)(=O)NCC2CCCO2)cc1)N1CCN(c2ncnc3[nH]ccc23)CC2(CC2)C1 (centres unmarked) [Example 70] | 100 to 1000 nM | 100 to 1000 nM | 100 to 1000 nM | > 1000 nM
CS(=O)(=O)Nc1ccc(C(=O)N2CCN(c3ncnc4[nH]ccc34)CC3(CC3)C2)cc1 [Example 102, N-[4-[5-(7H-pyrrolo[2,3-d]pyrimidin-4-yl)-5,8-diazaspiro[2.6]nonane-8-carbonyl]phenyl]methanesulfonamide] | 100 to 1000 nM | 100 to 1000 nM | 100 to 1000 nM | > 1000 nM
CNS(=O)(=O)c1ccc(C(=O)N2CCN(c3ncnc4[nH]ccc34)CC3(CC3)C2)cc1 [Example 72, N-methyl-4-[5-(7H-pyrrolo[2,3-d]pyrimidin-4-yl)-5,8-diazaspiro[2.6]nonane-8-carbonyl]benzenesulfonamide] | 100 to 1000 nM | < 100 nM | 100 to 1000 nM | > 1000 nM
Nc1nc(N2CCCN(Cc3ccccc3)C3(CC3)C2)c2cc[nH]c2n1 [Example 67, 4-(9-benzyl-5,9-diazaspiro[2.6]nonan-5-yl)-7H-pyrrolo[2,3-d]pyrimidin-2-amine] | > 1000 nM | > 1000 nM | > 1000 nM | > 1000 nM
N#Cc1cccc(CC(=O)N2CCCN(c3ncnc4[nH]ccc34)CC23CC3)c1 [Example 58, 3-[2-oxo-2-[5-(7H-pyrrolo[2,3-d]pyrimidin-4-yl)-5,9-diazaspiro[2.6]nonan-9-yl]ethyl]benzonitrile] | > 1000 nM | > 1000 nM | > 1000 nM | > 1000 nM
COc1cc(S(N)(=O)=O)ccc1C(=O)N1CCN(c2ncnc3[nH]ccc23)CC2(CC2)C1 [Example 52, 3-methoxy-4-[5-(7H-pyrrolo[2,3-d]pyrimidin-4-yl)-5,8-diazaspiro[2.6]nonane-8-carbonyl]benzenesulfonamide] | 100 to 1000 nM | < 100 nM | 100 to 1000 nM | > 1000 nM
COc1cccc(C(=O)N2CCN(c3ncnc4[nH]ccc34)CC3(CC3)C2)c1OC [Example 2, (2,3-Dimethoxyphenyl)-[8-(7H-pyrrolo[2,3-d]pyrimidin-4-yl)5,8-diazaspiro[2.6]non-5-yl]methanone] | > 1000 nM | > 1000 nM | > 1000 nM | > 1000 nM
CC(C)(C#N)C(=O)N1CCN(c2ncnc3[nH]ccc23)CC2(CC2)C1 [Example 11, 2,2-Dimethyl-3-oxo-3-[8-(7H-pyrrolo[2,3-d]pyrimidin-4-yl)-5,8-diazaspiro[2.6]non-5-yl]propionitrile] | > 1000 nM | 100 to 1000 nM | 100 to 1000 nM | > 1000 nM
CCCCN1CCCN(c2ncnc3[nH]ccc23)CC12CC2 [Example 281, 4-(9-butyl-5,9-diazaspiro[2.6]nonan-5-yl)-7H-pyrrolo[2,3-d]pyrimidine] | 100 to 1000 nM | 100 to 1000 nM | 100 to 1000 nM | > 1000 nM
N#CC1(C(=O)N2CCN(c3ncnc4[nH]ccc34)CC3(CC3)C2)CCOCC1 [Example 41, 4-[5-(7H-pyrrolo[2,3-d]pyrimidin-4-yl)-5,8-diazaspiro[2.6]nonane-8-carbonyl]tetrahydropyran-4-carbonitrile] | > 1000 nM | 100 to 1000 nM | 100 to 1000 nM | > 1000 nM
N#CCc1ccc(C(=O)N2CCN(c3ncnc4[nH]ccc34)CC3(CC3)C2)cc1 [Example 12, {4-[8-(7H-pyrrolo[2,3-d]pyrimidin-4-yl)-5,8-diazaspiro[2.6]nonane-5-carbonyl]phenyl}acetonitrile] | 100 to 1000 nM | 100 to 1000 nM | > 1000 nM | > 1000 nM
Cc1ccc(S(=O)(=O)N2CCCN(c3ncnc4[nH]ccc34)CC23CC3)cc1 [Example 94, 4-[9-(p-tolylsulfonyl)-5,9-diazaspiro[2.6]nonan-5-yl]-7H-pyrrolo[2,3-d]pyrimidine] | > 1000 nM | > 1000 nM | > 1000 nM | > 1000 nM
N#Cc1c[nH]c(C(=O)N2CCCN(c3ncnc4[nH]ccc34)CC23CC3)c1 [Example 209, 5-[5-(7H-pyrrolo[2,3-d]pyrimidin-4-yl)-5,9-diazaspiro[2.6]nonane-9-carbonyl]-1H-pyrrole-3-carbonitrile] | < 100 nM | < 100 nM | < 100 nM | < 100 nM
N#CCCC(=O)N1CCN(c2ncnc3[nH]ccc23)CC2(CC2)C1 [Example 1, 4-Oxo-4-[8-(7H-pyrrolo[2,3-d]pyrimidin-4-yl)-5,8-diazaspiro[2.6]non-5-yl]butyronitrile] | < 100 nM | < 100 nM | 100 to 1000 nM | 100 to 1000 nM

Second part, the molecule after the results:

EC50 [1] | EC50 [2] | EC50 [3] | EC50 [4] | SMILES
< 100 nM | 100 to 1000 nM | 100 to 1000 nM | > 1000 nM | N#Cc1ccc2[nH]c(C(=O)N3CCN(c4ncnc5[nH]ccc45)CC4(CC4)C3)cc2c1 [Example 8, 2-[8-(7H-pyrrolo[2,3-d]pyrimidin-4-yl)-5,8-diazaspiro[2.6]nonane-5-carbonyl]-1H-indole-5-carbonitrile]
< 100 nM | < 100 nM | < 100 nM | 100 to 1000 nM | NS(=O)(=O)c1ccc(CCC(=O)N2CCN(c3ncnc4[nH]ccc34)CC3(CC3)C2)cc1 [Example 34, 4-[3-oxo-3-[5-(7H-pyrrolo[2,3-d]pyrimidin-4-yl)-5,8-diazaspiro[2.6]nonan-8-yl]propyl]benzenesulfonamide]
< 100 nM | 100 to 1000 nM | 100 to 1000 nM | > 1000 nM | O=C(c1cc2ccccc2s1)N1CCN(c2ncnc3[nH]ccc23)CC2(CC2)C1 [Example 18, benzothiophen-2-yl-[5-(7H-pyrrolo[2,3-d]pyrimidin-4-yl)-5,8-diazaspiro[2.6]nonan-8-yl]methanone]
< 100 nM | < 100 nM | 100 to 1000 nM | 100 to 1000 nM | NS(=O)(=O)c1ccc(-c2ccc(C(=O)N3CCN(c4ncnc5[nH]ccc45)CC4(CC4)C3)o2)cc1 [Example 65, 4-[5-[5-(7H-pyrrolo[2,3-d]pyrimidin-4-yl)-5,8-diazaspiro[2.6]nonane-8-carbonyl]-2-furyl]benzenesulfonamide]
< 100 nM | < 100 nM | 100 to 1000 nM | 100 to 1000 nM | NS(=O)(=O)c1cc(C(=O)N2CCN(c3ncnc4[nH]ccc34)CC3(CC3)C2)cs1 [Example 75]
< 100 nM | < 100 nM | 100 to 1000 nM | 100 to 1000 nM | Cc1cc(C(=O)N2CCCN(c3ncnc4[nH]ccc34)CC23CC3)no1 [Example 141]
< 100 nM | < 100 nM | 100 to 1000 nM | 100 to 1000 nM | O=C(Cc1ccc(-c2nn[nH]n2)cc1)N1CCN(c2ncnc3[nH]ccc23)CC2(CC2)C1 [Example 77, 1-[5-(7H-pyrrolo[2,3-d]pyrimidin-4-yl)-5,8-diazaspiro[2.6]nonan-8-yl]-2-[4-(2H-tetrazol-5-yl)phenyl]ethanone]
< 100 nM | < 100 nM | < 100 nM | 100 to 1000 nM | N#Cc1ccc(CC(=O)N2CCN(c3ncnc4[nH]ccc34)CC3(CC3)C2)cc1 [Example 10, 4-{2-oxo-2-[8-(7H-pyrrolo[2,3-d]pyrimidin-4-yl)-5,8-diazaspiro[2.6]non-5-yl]ethyl}benzonitrile]
< 100 nM | < 100 nM | 100 to 1000 nM | 100 to 1000 nM | N#Cc1ccc(C(=O)N2CCCN(c3ncnc4[nH]ccc34)CC23CC3)o1 [Example 258, 5-[5-(7H-pyrrolo[2,3-d]pyrimidin-4-yl)-5,9-diazaspiro[2.6]nonane-9-carbonyl]furan-2-carbonitrile]
< 100 nM | < 100 nM | < 100 nM | 100 to 1000 nM | NS(=O)(=O)c1ccc(C(=O)N2CCN(c3ncnc4[nH]ccc34)CC3(CC3)C2)cc1 [Example 31, 4-[5-(7H-pyrrolo[2,3-d]pyrimidin-4-yl)-5,8-diazaspiro[2.6]nonane-8-carbonyl]benzenesulfonamide]
< 100 nM | < 100 nM | 100 to 1000 nM | 100 to 1000 nM | Cc1c[nH]c(C(=O)N2CCCN(c3ncnc4[nH]ccc34)CC23CC3)c1 [Example 277, (4-methyl-1H-pyrrol-2-yl)-[5-(7H-pyrrolo[2,3-d]pyrimidin-4-yl)-5,9-diazaspiro[2.6]nonan-9-yl]methanone]
